# In US20260184675A1, “CHIRAL ISOMERIC SULFITE COMPOUND AND APPLICATION THEREOF” (Chengdu Hanova BioSciences Co., Ltd, priority 2024, published 2026):
# Key:
# Assay type in all cases: in vivo
# [1] = system: pest eggs of Tetranychus cinnabarinus; experiment: Effect on hatching of pest eggs of Tetranychus cinnabarinus, leaf disc method; conditions: for Hatching rate (%): 7 days after insecticide delivery; for inhibitory effect on the hatching of pest eggs of Tetranychus cinnabarinus (in words): 1 ppm
# Summary of the method: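 Adult female mites laid eggs on 2.0 cm Vicia faba leaf discs for up to 36 h; discs with counted eggs were dipped 10 s in compound solution or water, then kept moist. Hatched eggs were counted 7 days after treatment and control effect was calculated by formula.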
# eggs of Aleyrodidae = experiment: Effect on hatching of eggs of Aleyrodidae, leaf disc method; conditions: 10 ppm; for Hatching rate (%), Replicate 1 / Hatching rate (%), Replicate 2 / Hatching rate (%), Replicate 3 / Number of hatched larvae 5 days after insecticide delivery, Replicate 1 / Number of hatched larvae 5 days after insecticide delivery, Replicate 2 / Number of hatched larvae 5 days after insecticide delivery, Replicate 3: Aleyrodidae eggs; for Hatching rate (%), Replicate 1 / Hatching rate (%), Replicate 2 / Hatching rate (%), Replicate 3: 5 days after delivery; for Number of hatched larvae 5 days after insecticide delivery, Replicate 1 / Number of hatched larvae 5 days after insecticide delivery, Replicate 2 / Number of hatched larvae 5 days after insecticide delivery, Replicate 3: leaf disc
# Summary of the method: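 Inhibition of Aleyrodidae egg hatching was tested with a leaf disc method at 10 ppm. Egg numbers on each disc were counted under a microscope before treatment. Discs bearing eggs were soaked for 10 seconds in clear water or test solution, removed, and kept under moist conditions. Hatching was checked five days after insecticide delivery and hatched larvae were counted.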
# [2] = system: eggs of Harmonia axyridis; experiment: Effect on hatching of eggs of Harmonia axyridis, egg card immersion; conditions: 100 ppm; for Number of hatched larvae 4 days after insecticide delivery, Replicate 1 / Number of hatched larvae 4 days after insecticide delivery, Replicate 2 / Number of hatched larvae 4 days after insecticide delivery, Replicate 3: Harmonia axyridis egg cards, immersed 30 seconds; for Hatching rate (%), Replicate 1 / Hatching rate (%), Replicate 2 / Hatching rate (%), Replicate 3: Harmonia axyridis eggs, 4 days after delivery
# Summary of the method: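 Egg cards (~20 eggs each) dipped 30 s in 100 ppm insecticide, air dried and kept moist at 27° C; 5 cards per treatment, 3 replicates. Hatching assessed 4 days after treatment against pre-treatment egg counts, and control effect calculated by formula.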
Compound,"Hatching rate (%) ([1]; 0.25 mg/L, Replicate 1)","Hatching rate (%) ([1]; 0.25 mg/L, Replicate 2)","Number of hatched larvae 7 days after insecticide delivery ([1]; 0.25 mg/L, Replicate 1)","Number of hatched larvae 7 days after insecticide delivery ([1]; 0.25 mg/L, Replicate 2)","Hatching rate (%) ([1]; 0.5 mg/L, Replicate 1)","Hatching rate (%) ([1]; 0.5 mg/L, Replicate 2)","Number of hatched larvae 7 days after insecticide delivery ([1]; 0.5 mg/L, Replicate 1)","Number of hatched larvae 7 days after insecticide delivery ([1]; 0.5 mg/L, Replicate 2)","Hatching rate (%) ([1]; 1 mg/L, Replicate 1)","Hatching rate (%) ([1]; 1 mg/L, Replicate 2)","Number of hatched larvae 7 days after insecticide delivery ([1]; 1 mg/L, Replicate 1)","Number of hatched larvae 7 days after insecticide delivery ([1]; 1 mg/L, Replicate 2)",inhibitory effect on the hatching of pest eggs of Tetranychus cinnabarinus (in words) [1],inhibitory activity on the hatching of eggs of Aleyrodidae (in words) (eggs of Aleyrodidae),inhibitory activity on the hatching of eggs of Harmonia axyridis (in words) [2],also measured
"CC(COc1ccc(Cl)cc1Cl)OS(=O)OCCF [1′-(S,R)]",42.86,44.83,28,32,8.89,3.23,41,60,0.00,0.00,69,78,excellent inhibitory effects,strong inhibitory activities,strong inhibitory activities,"Hatching rate (%), Replicate 1 (eggs of Aleyrodidae; listed as 1′-(S, R)): 0.00%; Hatching rate (%), Replicate 2 (eggs of Aleyrodidae; listed as 1′-(S, R)): 0.00%; Hatching rate (%), Replicate 3 (eggs of Aleyrodidae; listed as 1′-(S, R)): 0.00%; Number of hatched larvae 5 days after insecticide delivery, Replicate 1 (eggs of Aleyrodidae; listed as 1′-(S, R)): 0; Number of hatched larvae 5 days after insecticide delivery, Replicate 2 (eggs of Aleyrodidae; listed as 1′-(S, R)): 0; Number of hatched larvae 5 days after insecticide delivery, Replicate 3 (eggs of Aleyrodidae; listed as 1′-(S, R)): 0; Number of hatched larvae 4 days after insecticide delivery, Replicate 1 ([2]; listed as 1′-(S, R)): 0; Number of hatched larvae 4 days after insecticide delivery, Replicate 2 ([2]; listed as 1′-(S, R)): 0; Number of hatched larvae 4 days after insecticide delivery, Replicate 3 ([2]; listed as 1′-(S, R)): 0; Hatching rate (%), Replicate 1 ([2]; listed as 1′-(S, R)): 0.00%; Hatching rate (%), Replicate 2 ([2]; listed as 1′-(S, R)): 0.00%; Hatching rate (%), Replicate 3 ([2]; listed as 1′-(S, R)): 0.00%"
"CC(COc1ccc(Cl)cc1Cl)OS(=O)OCCF [1′-(S,S)]",64.58,69.57,17,14,27.59,12.00,42,66,16.36,14.63,46,35,–,–,–,"Hatching rate (%), Replicate 1 (eggs of Aleyrodidae; listed as 1′-(S, S)): 15.15%; Hatching rate (%), Replicate 2 (eggs of Aleyrodidae; listed as 1′-(S, S)): 16.19%; Hatching rate (%), Replicate 3 (eggs of Aleyrodidae; listed as 1′-(S, S)): 15.38%; Number of hatched larvae 5 days after insecticide delivery, Replicate 1 (eggs of Aleyrodidae; listed as 1′-(S, S)): 20; Number of hatched larvae 5 days after insecticide delivery, Replicate 2 (eggs of Aleyrodidae; listed as 1′-(S, S)): 17; Number of hatched larvae 5 days after insecticide delivery, Replicate 3 (eggs of Aleyrodidae; listed as 1′-(S, S)): 12; Number of hatched larvae 4 days after insecticide delivery, Replicate 1 ([2]; listed as 1′-(S, S)): 18; Number of hatched larvae 4 days after insecticide delivery, Replicate 2 ([2]; listed as 1′-(S, S)): 19; Number of hatched larvae 4 days after insecticide delivery, Replicate 3 ([2]; listed as 1′-(S, S)): 21; Hatching rate (%), Replicate 1 ([2]; listed as 1′-(S, S)): 19.57%; Hatching rate (%), Replicate 2 ([2]; listed as 1′-(S, S)): 19.39%; Hatching rate (%), Replicate 3 ([2]; listed as 1′-(S, S)): 18.69%"
"CCC(COc1ccc(Cl)cc1Cl)OS(=O)OCCF [19-(R,R)]",75.00,76.00,18,18,36.23,36.00,–,34,14.89,16.67,40,55,–,–,–,"Hatching rate (%), Replicate 1 (eggs of Aleyrodidae; listed as 19-(R, R)): 11.96%; Hatching rate (%), Replicate 2 (eggs of Aleyrodidae; listed as 19-(R, R)): 10.20%; Hatching rate (%), Replicate 3 (eggs of Aleyrodidae; listed as 19-(R, R)): 11.20%; Number of hatched larvae 5 days after insecticide delivery, Replicate 1 (eggs of Aleyrodidae; listed as 19-(R, R)): 11; Number of hatched larvae 5 days after insecticide delivery, Replicate 2 (eggs of Aleyrodidae; listed as 19-(R, R)): 10; Number of hatched larvae 5 days after insecticide delivery, Replicate 3 (eggs of Aleyrodidae; listed as 19-(R, R)): 14; Number of hatched larvae 4 days after insecticide delivery, Replicate 1 ([2]; listed as 19-(R, R)): 14; Number of hatched larvae 4 days after insecticide delivery, Replicate 2 ([2]; listed as 19-(R, R)): 15; Number of hatched larvae 4 days after insecticide delivery, Replicate 3 ([2]; listed as 19-(R, R)): 14; Hatching rate (%), Replicate 1 ([2]; listed as 19-(R, R)): 14.43%; Hatching rate (%), Replicate 2 ([2]; listed as 19-(R, R)): 14.42%; Hatching rate (%), Replicate 3 ([2]; listed as 19-(R, R)): 13.73%"
"CC[C@H](COc1ccc(Cl)cc1Cl)OS(=O)OCCF (stereo partly drawn) [19-(R,S)]",39.68,41.38,38,34,2.08,3.57,47,54,0.00,0.00,59,67,excellent inhibitory effects,strong inhibitory activities,strong inhibitory activities,"Hatching rate (%), Replicate 1 (eggs of Aleyrodidae): 0.00%; Hatching rate (%), Replicate 2 (eggs of Aleyrodidae): 0.00%; Hatching rate (%), Replicate 3 (eggs of Aleyrodidae): 0.00%; Number of hatched larvae 5 days after insecticide delivery, Replicate 1 (eggs of Aleyrodidae): 0; Number of hatched larvae 5 days after insecticide delivery, Replicate 2 (eggs of Aleyrodidae): 0; Number of hatched larvae 5 days after insecticide delivery, Replicate 3 (eggs of Aleyrodidae): 0; Number of hatched larvae 4 days after insecticide delivery, Replicate 1 [2]: 0; Number of hatched larvae 4 days after insecticide delivery, Replicate 2 [2]: 0; Number of hatched larvae 4 days after insecticide delivery, Replicate 3 [2]: 0; Hatching rate (%), Replicate 1 [2]: 0.00%; Hatching rate (%), Replicate 2 [2]: 0.00%; Hatching rate (%), Replicate 3 [2]: 0.00%"
